Measurements published in paper PMC9694544, “Conteltinib (CT-707) in patients with advanced ALK-positive non-small cell lung cancer: a multicenter, open-label, first-in-human phase 1 study” (BMC Medicine, 2022).

Test system: patients with ALK-positive NSCLC
Test: Phase 1 safety assessment (TRAEs by CTCAE 4.03, DLT, MTD, RP2D)
Assay type: in vivo, human
Description: In the dose-escalation phase, the dose was escalated sequentially from a low to a high level with a 3 + 3 dose-escalation scheme based on the modified Fibonacci method. The starting dose for conteltinib was 50 mg orally quaque die (QD). Dose escalation proceeded to the next six cohorts of 100 mg, 200 mg, 300 mg, 450 mg, 600 mg, and 800 mg QD. For each dose, there was a PK lead-in phase where a single dose was given 7 days before cycle 1 day 1. Then, each dose was taken continuously in a 28-day cycle. The first cycle was for dose-limiting toxicity (DLT) investigation. When one of three patients experienced a DLT in a dose cohort, three additional patients were enrolled in the same dose cohort to assess the dose level in a total of six patients. All patients received conteltinib until disease progression, unacceptable toxicity, or withdrawal of consent. Patients received follow-up safety assessments for 30 days (±7 days) after the last conteltinib dose.
In the dose-expansion phase, each dose was taken continuously in a 28-day cycle. At the end of each cycle, a safety evaluation was conducted. If patients met the criteria to enter the next cycle, treatment with conteltinib was continued for subsequent cycles. All patients received conteltinib until disease progression, unacceptable toxicity, or withdrawal of consent. Patients received follow-up safety assessments for 30 days (±7 days) after the last dose of conteltinib.
The safety of conteltinib was assessed in safety set (SS) which was based on the National Cancer Institute Common Terminology Criteria for Adverse Events (CTCAE) version 4.03, laboratory tests, vital signs, ECG, and clinical observations. […] Adverse events (AEs) were judged to be treatment-related or not by investigators.
DLTs were AEs occurring in the first cycle of treatment (28 days) that were attributed to conteltinib, and the criteria were grade 4 neutropenia lasting ≥ 7 days, febrile neutropenia, grade 3 thrombocytopenia, grade 3 non-hematologic toxicity, and any conteltinib-related toxicity resulting in treatment delay > 2 weeks or discontinuation of conteltinib treatment at the assigned dose level. Besides, grade 3 nausea, vomiting, or diarrhea for ≥ 3 days or grade 4 nausea, vomiting, or diarrhea of any duration was considered as a DLT. The MTD was defined as the dose of conteltinib that would be closest to but not higher than a 33% probability of a DLT.

COc1cc(N2CCC(N3CCN(C)CC3)CC2)ccc1Nc1nc2c(c(Nc3ccccc3S(=O)(=O)NC(C)C)n1)CCN2 [Conteltinib]
TRAE Hypertriglyceridemia (800 mg QD (n=4), Grade ≥ 3): 0 (0.0) n (%)
TRAE Hyperuricemia (800 mg QD (n=4), Grade ≥ 3): 0 (0.0) n (%)
TRAE Hypoalbuminemia (800 mg QD (n=4), Grade ≥ 3): 0 (0.0) n (%)
TRAE Nausea (800 mg QD (n=4), Grade ≥ 3): 0 (0.0) n (%)
TRAE Proteinuria (800 mg QD (n=4), Grade ≥ 3): 0 (0.0) n (%)
TRAE Serum creatinine elevated (800 mg QD (n=4), Grade ≥ 3): 0 (0.0) n (%)
TRAE Vomiting (800 mg QD (n=4), Grade ≥ 3): 0 (0.0) n (%)
TRAE Weight loss (800 mg QD (n=4), Grade ≥ 3): 0 (0.0) n (%)
TRAE γ-GGT elevated (800 mg QD (n=4), Grade ≥ 3): 0 (0.0) n (%)
DLTs (800 mg QD cohort): No DLTs were observed
patients with permanent discontinuation due to TRAE (64 patients, impaired liver function): 3.1%
patients with TRAEs leading to conteltinib interruption (64 patients, serum creatinine elevated and impaired liver function): 6.3%
patients with TRAEs leading to dose reduction (64 patients, serum creatinine elevated, neutropenia, impaired liver function): 4.7%
patients with grade ≥ 3 TRAEs (SS, 64 patients): 14.1%
TRAE ALT elevated (SS, 64 patients, all grades): 34.4%
TRAE AST elevated (SS, 64 patients, all grades): 39.1%
TRAE Abdominal pain (SS, 64 patients, all grades): 26.6%
TRAE Abdominal pain upper (SS, 64 patients, all grades): 17.2%
TRAE Appetite decreased (SS, 64 patients, all grades): 18.75%
TRAE Conjugated bilirubin elevated (SS, 64 patients, all grades): 10.9%
TRAE Diarrhea (SS, 64 patients, all grades): 71.9%
TRAE Hypercholesterolemia (SS, 64 patients, all grades): 12.5%
TRAE Hyperglycemia (SS, 64 patients, all grades): 15.6%
TRAE Hypertriglyceridemia (SS, 64 patients, all grades): 23.4%
TRAE Hyperuricemia (SS, 64 patients, all grades): 31.25%
TRAE Hypoalbuminemia (SS, 64 patients, all grades): 17.2%
TRAE Nausea (SS, 64 patients, all grades): 37.5%
TRAE Proteinuria (SS, 64 patients, all grades): 21.9%
TRAE Serum creatinine elevated (SS, 64 patients, all grades): 45.3%
TRAE Vomiting (SS, 64 patients, all grades): 35.9%
TRAE Weight loss (SS, 64 patients, all grades): 28.1%
TRAE γ-GGT elevated (SS, 64 patients, all grades): 32.8%
patients with TRAEs (SS, 64 patients, all grades): 90.6%
TRAE Conjugated bilirubin elevated (SS, 64 patients, grade ≥ 3): 1.6%
TRAE Diarrhea (SS, 64 patients, grade ≥ 3): 3.1%
TRAE Serum creatinine elevated (SS, 64 patients, grade ≥ 3): 1.6%
TRAE γ-GGT elevated (SS, 64 patients, grade ≥ 3): 7.8%
Patients with any TRAE (Total (n=64), All grade): 58 (90.6) n (%)
TRAE ALT elevated (Total (n=64), All grade): 22 (34.4) n (%)
TRAE AST elevated (Total (n=64), All grade): 25 (39.1) n (%)
TRAE Abdominal pain (Total (n=64), All grade): 17 (26.6) n (%)
TRAE Abdominal pain upper (Total (n=64), All grade): 11 (17.2) n (%)
TRAE Appetite decreased (Total (n=64), All grade): 12 (18.8) n (%)
TRAE Conjugated bilirubin elevated (Total (n=64), All grade): 7 (10.9) n (%)
TRAE Diarrhea (Total (n=64), All grade): 46 (71.9) n (%)
TRAE Hypercholesterolemia (Total (n=64), All grade): 8 (12.5) n (%)
TRAE Hyperglycemia (Total (n=64), All grade): 10 (15.6) n (%)
TRAE Hypertriglyceridemia (Total (n=64), All grade): 15 (23.4) n (%)
TRAE Hyperuricemia (Total (n=64), All grade): 20 (31.3) n (%)
TRAE Hypoalbuminemia (Total (n=64), All grade): 11 (17.2) n (%)
TRAE Nausea (Total (n=64), All grade): 24 (37.5) n (%)
TRAE Proteinuria (Total (n=64), All grade): 14 (21.9) n (%)
TRAE Serum creatinine elevated (Total (n=64), All grade): 29 (45.3) n (%)
TRAE Vomiting (Total (n=64), All grade): 23 (35.9) n (%)
TRAE Weight loss (Total (n=64), All grade): 18 (28.1) n (%)
TRAE γ-GGT elevated (Total (n=64), All grade): 21 (32.8) n (%)
Patients with any TRAE (Total (n=64), Grade 1–2): 58 (90.6) n (%)
TRAE ALT elevated (Total (n=64), Grade 1–2): 22 (34.4) n (%)
TRAE AST elevated (Total (n=64), Grade 1–2): 25 (39.1) n (%)
TRAE Abdominal pain (Total (n=64), Grade 1–2): 17 (26.6) n (%)
TRAE Abdominal pain upper (Total (n=64), Grade 1–2): 11 (17.2) n (%)
TRAE Appetite decreased (Total (n=64), Grade 1–2): 12 (18.8) n (%)
TRAE Conjugated bilirubin elevated (Total (n=64), Grade 1–2): 6 (9.4) n (%)
TRAE Diarrhea (Total (n=64), Grade 1–2): 44 (68.8) n (%)
TRAE Hypercholesterolemia (Total (n=64), Grade 1–2): 8 (12.5) n (%)
TRAE Hyperglycemia (Total (n=64), Grade 1–2): 10 (15.6) n (%)
TRAE Hypertriglyceridemia (Total (n=64), Grade 1–2): 15 (23.4) n (%)
TRAE Hyperuricemia (Total (n=64), Grade 1–2): 20 (31.3) n (%)
TRAE Hypoalbuminemia (Total (n=64), Grade 1–2): 11 (17.2) n (%)
TRAE Nausea (Total (n=64), Grade 1–2): 24 (37.5) n (%)
TRAE Proteinuria (Total (n=64), Grade 1–2): 14 (21.9) n (%)
TRAE Serum creatinine elevated (Total (n=64), Grade 1–2): 28 (43.8) n (%)
TRAE Vomiting (Total (n=64), Grade 1–2): 23 (35.9) n (%)
TRAE Weight loss (Total (n=64), Grade 1–2): 18 (28.1) n (%)
TRAE γ-GGT elevated (Total (n=64), Grade 1–2): 16 (25.0) n (%)
Patients with any TRAE (Total (n=64), Grade ≥ 3): 9 (14.1) n (%)
TRAE ALT elevated (Total (n=64), Grade ≥ 3): 0 (0.0) n (%)
TRAE AST elevated (Total (n=64), Grade ≥ 3): 0 (0.0) n (%)
TRAE Abdominal pain (Total (n=64), Grade ≥ 3): 0 (0.0) n (%)
TRAE Abdominal pain upper (Total (n=64), Grade ≥ 3): 0 (0.0) n (%)
TRAE Appetite decreased (Total (n=64), Grade ≥ 3): 0 (0.0) n (%)
TRAE Conjugated bilirubin elevated (Total (n=64), Grade ≥ 3): 1 (1.6) n (%)
TRAE Diarrhea (Total (n=64), Grade ≥ 3): 2 (3.1) n (%)
TRAE Hypercholesterolemia (Total (n=64), Grade ≥ 3): 0 (0.0) n (%)
TRAE Hyperglycemia (Total (n=64), Grade ≥ 3): 0 (0.0) n (%)
TRAE Hypertriglyceridemia (Total (n=64), Grade ≥ 3): 0 (0.0) n (%)
TRAE Hyperuricemia (Total (n=64), Grade ≥ 3): 0 (0.0) n (%)
TRAE Hypoalbuminemia (Total (n=64), Grade ≥ 3): 0 (0.0) n (%)
TRAE Nausea (Total (n=64), Grade ≥ 3): 0 (0.0) n (%)
TRAE Proteinuria (Total (n=64), Grade ≥ 3): 0 (0.0) n (%)
TRAE Serum creatinine elevated (Total (n=64), Grade ≥ 3): 1 (1.6) n (%)
TRAE Vomiting (Total (n=64), Grade ≥ 3): 0 (0.0) n (%)
TRAE Weight loss (Total (n=64), Grade ≥ 3): 0 (0.0) n (%)
TRAE γ-GGT elevated (Total (n=64), Grade ≥ 3): 5 (7.8) n (%)
DLTs (dose-expansion phase): No DLTs were observed
MTD (doses 50 to 800 mg QD): not reached
deaths during treatment (in vivo): No patients died
rash (this study): 6.25%
visual effects (this study): 1.6%
